Laboratory results published in ChEMBL document CHEMBL1136768, “Structure-activity relationships of (S,Z)-2-aminopurine methylenecyclopropane analogues of nucleosides. Variation of purine-6 substituents and activity against herpesviruses and hepatitis B virus” (J Med Chem, 2003).

The molecules below were run on Hepatitis B virus (assay: Inhibition of the replication of HBV in 2.2.15 cells, by DNA hybridization assay). Conditions: HepG2 2.2.15.
Assay type: functional, organism-based

Compound	EC50 [µM]
Nc1nc(OCC2CC2)c2ncn(/C=C3/C[C@@H]3CO)c2n1	12.6
Nc1nc(NC2CC2)c2ncn(/C=C3/C[C@@H]3CO)c2n1	> 10
C=CCNc1nc(N)nc2c1ncn2/C=C1/C[C@@H]1CO	20
Nc1nc(O)c2ncn(/C=C3/C[C@@H]3CO)c2n1	> 10
C=CCOc1nc(N)nc2c1ncn2/C=C1/C[C@@H]1CO	11
Nc1nc(NCc2ccccc2)c2ncn(/C=C3/C[C@@H]3CO)c2n1	> 20
Nc1nc(S)c2ncn(/C=C3/C[C@@H]3CO)c2n1	20
CCCSc1nc(N)nc2c1ncn2/C=C1/C[C@@H]1CO	5.1

Each molecule was assayed on Human alphaherpesvirus 1 (assay: Concentration inhibiting the replication of HSV-1 in BSC-1 cells determined by ELISA assay). Conditions: Human alphaherpesvirus 1, BSC-1.
Assay type: functional, organism-based, herpes simplex virus

Compound	EC50 [µM]
Nc1nc(OCC2CC2)c2ncn(/C=C3/C[C@@H]3CO)c2n1	7
Nc1nc(NC2CC2)c2ncn(/C=C3/C[C@@H]3CO)c2n1	20
C=CCNc1nc(N)nc2c1ncn2/C=C1/C[C@@H]1CO	4
Nc1nc(O)c2ncn(/C=C3/C[C@@H]3CO)c2n1	45
C=CCOc1nc(N)nc2c1ncn2/C=C1/C[C@@H]1CO	1.5
Nc1nc(NCc2ccccc2)c2ncn(/C=C3/C[C@@H]3CO)c2n1	> 50
Nc1nc(S)c2ncn(/C=C3/C[C@@H]3CO)c2n1	> 100
CCCSc1nc(N)nc2c1ncn2/C=C1/C[C@@H]1CO	1

The molecules below were run on CCRF-CEM (assay: Cytotoxicity in uninfected CEM cells). Conditions: Homo sapiens.
Assay type: functional

Compound	CC50 [µM]
Nc1nc(OCC2CC2)c2ncn(/C=C3/C[C@@H]3CO)c2n1	41
Nc1nc(NC2CC2)c2ncn(/C=C3/C[C@@H]3CO)c2n1	70
C=CCNc1nc(N)nc2c1ncn2/C=C1/C[C@@H]1CO	> 100
Nc1nc(O)c2ncn(/C=C3/C[C@@H]3CO)c2n1	90
C=CCOc1nc(N)nc2c1ncn2/C=C1/C[C@@H]1CO	26
Nc1nc(NCc2ccccc2)c2ncn(/C=C3/C[C@@H]3CO)c2n1	> 50
Nc1nc(S)c2ncn(/C=C3/C[C@@H]3CO)c2n1	29
CCCSc1nc(N)nc2c1ncn2/C=C1/C[C@@H]1CO	> 100

These molecules were tested on Human gammaherpesvirus 4 (assay: Concentration inhibiting the replication of EBV in Daudi cells). Conditions: human gammaherpesvirus 4, Daudi.
Assay type: functional, organism-based

Compound	EC50 [µM]
Nc1nc(OCC2CC2)c2ncn(/C=C3/C[C@@H]3CO)c2n1	29.2
Nc1nc(NC2CC2)c2ncn(/C=C3/C[C@@H]3CO)c2n1	6.2
C=CCNc1nc(N)nc2c1ncn2/C=C1/C[C@@H]1CO	> 184
Nc1nc(O)c2ncn(/C=C3/C[C@@H]3CO)c2n1	2.3
C=CCOc1nc(N)nc2c1ncn2/C=C1/C[C@@H]1CO	> 183
Nc1nc(NCc2ccccc2)c2ncn(/C=C3/C[C@@H]3CO)c2n1	> 155
Nc1nc(S)c2ncn(/C=C3/C[C@@H]3CO)c2n1	> 8
CCCSc1nc(N)nc2c1ncn2/C=C1/C[C@@H]1CO	> 172

These molecules were tested on Daudi (assay: Concentration inhibiting the replication of EBV in Daudi cells by DNA hybridization assay). Conditions: Homo sapiens.
Assay type: functional, cell-based

Compound	EC50 [nM]
Nc1nc(NC2CC2)c2ncn(/C=C3/C[C@@H]3CO)c2n1	850
Nc1nc(O)c2ncn(/C=C3/C[C@@H]3CO)c2n1	< 340

The molecules below were run on Human gammaherpesvirus 4 (assay: Concentration inhibiting the replication of EBV in H-1 cells by DNA hybridization assay). Conditions: human gammaherpesvirus 4, H-1.
Assay type: functional, organism-based

Compound	EC50 [µM]
Nc1nc(OCC2CC2)c2ncn(/C=C3/C[C@@H]3CO)c2n1	12.6
Nc1nc(NC2CC2)c2ncn(/C=C3/C[C@@H]3CO)c2n1	0.66
C=CCNc1nc(N)nc2c1ncn2/C=C1/C[C@@H]1CO	18.5
Nc1nc(O)c2ncn(/C=C3/C[C@@H]3CO)c2n1	0.47
C=CCOc1nc(N)nc2c1ncn2/C=C1/C[C@@H]1CO	1.1
Nc1nc(NCc2ccccc2)c2ncn(/C=C3/C[C@@H]3CO)c2n1	> 20
Nc1nc(S)c2ncn(/C=C3/C[C@@H]3CO)c2n1	> 20
CCCSc1nc(N)nc2c1ncn2/C=C1/C[C@@H]1CO	6.3

Each molecule was assayed on HFF (assay: Cytotoxicity against proliferating HFF cells). Conditions: Homo sapiens.
Assay type: functional

Compound	CC50 [µM]
Nc1nc(OCC2CC2)c2ncn(/C=C3/C[C@@H]3CO)c2n1	112
Nc1nc(NC2CC2)c2ncn(/C=C3/C[C@@H]3CO)c2n1	213
C=CCNc1nc(N)nc2c1ncn2/C=C1/C[C@@H]1CO	> 368
Nc1nc(O)c2ncn(/C=C3/C[C@@H]3CO)c2n1	257
C=CCOc1nc(N)nc2c1ncn2/C=C1/C[C@@H]1CO	220
CCCSc1nc(N)nc2c1ncn2/C=C1/C[C@@H]1CO	283

What follows are molecules tested on MEF (assay: Cytotoxicity in uninfected MEF cells). Conditions: Mus musculus.
Assay type: functional

Compound	CC50 [µM]
Nc1nc(OCC2CC2)c2ncn(/C=C3/C[C@@H]3CO)c2n1	278
Nc1nc(NC2CC2)c2ncn(/C=C3/C[C@@H]3CO)c2n1	367
C=CCNc1nc(N)nc2c1ncn2/C=C1/C[C@@H]1CO	> 368
Nc1nc(O)c2ncn(/C=C3/C[C@@H]3CO)c2n1	> 429
C=CCOc1nc(N)nc2c1ncn2/C=C1/C[C@@H]1CO	> 366
Nc1nc(NCc2ccccc2)c2ncn(/C=C3/C[C@@H]3CO)c2n1	25
Nc1nc(S)c2ncn(/C=C3/C[C@@H]3CO)c2n1	64
CCCSc1nc(N)nc2c1ncn2/C=C1/C[C@@H]1CO	343

The molecules below were run on Murid betaherpesvirus 1 (assay: Concentration inhibiting the replication of MCMV in MEF cells). Conditions: Murid betaherpesvirus 1, MEF.
Assay type: functional, organism-based

Compound	EC50 [nM]
Nc1nc(OCC2CC2)c2ncn(/C=C3/C[C@@H]3CO)c2n1	350
Nc1nc(NC2CC2)c2ncn(/C=C3/C[C@@H]3CO)c2n1	150
C=CCNc1nc(N)nc2c1ncn2/C=C1/C[C@@H]1CO	330
Nc1nc(O)c2ncn(/C=C3/C[C@@H]3CO)c2n1	390
C=CCOc1nc(N)nc2c1ncn2/C=C1/C[C@@H]1CO	290
Nc1nc(S)c2ncn(/C=C3/C[C@@H]3CO)c2n1	> 16000
CCCSc1nc(N)nc2c1ncn2/C=C1/C[C@@H]1CO	1400

Each molecule was assayed on Human alphaherpesvirus 1 (assay: Concentration inhibiting the replication of HSV-1 in Vero cells determined by plaque reduction assay). Conditions: Human alphaherpesvirus 1, Vero.
Assay type: functional, organism-based, herpes simplex virus

Compound	EC50 [µM]
Nc1nc(OCC2CC2)c2ncn(/C=C3/C[C@@H]3CO)c2n1	8
Nc1nc(NC2CC2)c2ncn(/C=C3/C[C@@H]3CO)c2n1	15
C=CCNc1nc(N)nc2c1ncn2/C=C1/C[C@@H]1CO	18
Nc1nc(O)c2ncn(/C=C3/C[C@@H]3CO)c2n1	50
C=CCOc1nc(N)nc2c1ncn2/C=C1/C[C@@H]1CO	7
Nc1nc(NCc2ccccc2)c2ncn(/C=C3/C[C@@H]3CO)c2n1	> 100
Nc1nc(S)c2ncn(/C=C3/C[C@@H]3CO)c2n1	> 50
CCCSc1nc(N)nc2c1ncn2/C=C1/C[C@@H]1CO	9

These molecules were tested on Human alphaherpesvirus 2 (assay: Concentration inhibiting the replication of HSV-2 in Vero cells.). Conditions: Human alphaherpesvirus 2, Vero.
Assay type: functional, organism-based

Compound	EC50 [µM]
Nc1nc(OCC2CC2)c2ncn(/C=C3/C[C@@H]3CO)c2n1	12
Nc1nc(NC2CC2)c2ncn(/C=C3/C[C@@H]3CO)c2n1	22
C=CCNc1nc(N)nc2c1ncn2/C=C1/C[C@@H]1CO	21
Nc1nc(O)c2ncn(/C=C3/C[C@@H]3CO)c2n1	> 50
C=CCOc1nc(N)nc2c1ncn2/C=C1/C[C@@H]1CO	8
Nc1nc(NCc2ccccc2)c2ncn(/C=C3/C[C@@H]3CO)c2n1	52
Nc1nc(S)c2ncn(/C=C3/C[C@@H]3CO)c2n1	> 50
CCCSc1nc(N)nc2c1ncn2/C=C1/C[C@@H]1CO	10

What follows are molecules tested on Daudi (assay: Cytotoxicity in uninfected Daudi cells). Conditions: Homo sapiens.
Assay type: functional

Compound	CC50 [µM]
Nc1nc(OCC2CC2)c2ncn(/C=C3/C[C@@H]3CO)c2n1	112
Nc1nc(NC2CC2)c2ncn(/C=C3/C[C@@H]3CO)c2n1	176
C=CCNc1nc(N)nc2c1ncn2/C=C1/C[C@@H]1CO	> 184
Nc1nc(O)c2ncn(/C=C3/C[C@@H]3CO)c2n1	> 215
C=CCOc1nc(N)nc2c1ncn2/C=C1/C[C@@H]1CO	> 183
Nc1nc(S)c2ncn(/C=C3/C[C@@H]3CO)c2n1	35.3
CCCSc1nc(N)nc2c1ncn2/C=C1/C[C@@H]1CO	> 172

These molecules were tested on HFF (assay: Cytotoxicity was scored on uninfected HFF cells not affected by virus in the HCMV (AD169 strain) by neutral red uptake). Conditions: not given.
Assay type: functional

Compound	CC50 [µM]
Nc1nc(NCc2ccccc2)c2ncn(/C=C3/C[C@@H]3CO)c2n1	> 310

The molecules below were run on Human betaherpesvirus 5 (assay: Concentration inhibiting the replication of HCMV in HFF cells by plaque reduction assay). Conditions: Human betaherpesvirus 5, HFF.

Compound	EC50 [µM]
Nc1nc(OCC2CC2)c2ncn(/C=C3/C[C@@H]3CO)c2n1	8.4
Nc1nc(NC2CC2)c2ncn(/C=C3/C[C@@H]3CO)c2n1	12
C=CCNc1nc(N)nc2c1ncn2/C=C1/C[C@@H]1CO	> 368
Nc1nc(O)c2ncn(/C=C3/C[C@@H]3CO)c2n1	55
C=CCOc1nc(N)nc2c1ncn2/C=C1/C[C@@H]1CO	2.3
Nc1nc(NCc2ccccc2)c2ncn(/C=C3/C[C@@H]3CO)c2n1	> 62
Nc1nc(S)c2ncn(/C=C3/C[C@@H]3CO)c2n1	> 80
CCCSc1nc(N)nc2c1ncn2/C=C1/C[C@@H]1CO	> 69
